From patent publication EP0642504B1 (priority 1991, dated 1993)
Marks after values point to notes of the source that are not given here.

Experiments:
[1] = test system: peritoneal leukocytes; assay: Leukocyte adhesion assay, peritoneal cells collected after oral dosing; type: in vivo, CD-1 mice
Protocol: Leukocytes are thought to be major contributors to the inflammatory response and their ability in this regard is reflected by their adhesiveness to a variety of substrates [Audette, C.A., et al., Life Sci., 47, 753 (1990)].
The details of the leukocytes adhesion assay have been previously reported [Audette et al., ibid.]. In brief, peritoneal cells from femals CD-1 mice (20-25 g) were collected at 90 min following oral administration of the drug or vehicle (50 µl peanut oil). Cells from each treatment group (N=3) were pooled and equal numbers aliquoted into six culture dish wells (1.9 cm^2 area). After incubation for 18-20 hours, non-adhering cells were removed and the remaining cell monolayer quantitated by DNA measurement.

[2] = test system: PAF-Induced Paw Edema; assay: PAF-induced paw edema (water displacement); type: in vivo, CD-1 female mice; conditions: for percent inhibition of paw edema: oral, 15 min after PAF (1.0 µg s.c.), vs vehicle treated controls
Protocol: A second model, in which edema is induced by platelet activating factor (PAF), was used to evaluate activity.
(§1) The conditions were based on those reported previously [Calhoun et al., ibid.]. […] PAF (1.0 µg) or arachidonic acid (1.0 mg) dissolved in 50 µl of 5% ethanol in saline, were injected s.c. into the plantar surface of the right hind paw of CD-1 female mice (20-25 g) obtained from Charles River Labs. The mice were under ether anesthesia during this procedure. The volume of the right foot was measured to the level of the lateral malleous by water displacement before treatment and 15 min after PAF injection or 30 min after archidonate injection. The change in paw volume was calculated for each mouse and the significance for each group was determined by a paired t test analysis.

[3] = test system: mouse; assay: Mouse hot plate test (55°C) for antinociception; type: in vivo
Protocol: In the hot plate test for analgesia an aluminum surface was maintained at 55 ± 1°C by circulating water through passages in the metal. A clear plastic cylinder 18 cm in diameter and 26 cm high was placed on the surface to prevent escape. The end point was taken when the mouse either performed a hind paw lick or jumped off the surface; in no case were the animals kept for more than 30 secs on the plate. Mice were never used more than one time; control values were always measured at 11 a.m. and test values at 2 p.m. The drugs were administered orally 90 min before the hot plate test. The percent change in response time (latency) was calculated by comparing the mean of the control values with the mean of the test values and statistical signficance determined by a paired t-test analysis using software (Statview, 512) from Brainpower, Inc., Calabasas, Ca.

[4] = test system: N-methyl-D-aspartate (NMDA) induced lethality; assay: Protection against NMDA induced lethality; type: in vivo, Balb/c male mice; conditions: drug 10 mg/kg, 90 min before NMDA (125 mg/kg) s.c.; no drug 0/20
Description: (§2) The present compounds are active in several tests generally used to indicate neuroprotection.

[5] = test system: forebrain ischemia (unilateral occlusion); assay: Forebrain ischemia (unilateral occlusion); type: in vivo; conditions: mongolian gerbils
Description: as §2

[6] = test system: picrotoxin induced lethality; assay: Protection against picrotoxin induced lethality; type: in vivo, Balb/c male mice; conditions: drug 10 mg/kg, 120 min before picrotoxin (8 mg/kg) s.c.; no drug 0/17
Description: as §2

[7] = test system: mouse; assay: Ring test for cataleptic effects; type: in vivo; conditions: 5-min test period, vehicle 7.7 ± 4.4
Protocol: The lack of CNS activity for the compounds described herein may be seen from the data shown in Table V. This was measured by the so-called "ring test" [Pertwee, R.G., et al., J. Pharmacol., 46, 753 (1972)] in which the cataleptic effects of cannabinoids can be quantitated. The compounds produced little or no response when compared with the parent drug.
The cataleptic response was measured using the ring test. Mice were placed on a horizontal wire ring 5.5 cm in diameter, which was attached to a 16 cm vertical rod. The hind paws and fore paws were placed at opposite sides of the ring. It is important that the ambient temperature is maintained at 30°C and that the environment be free of auditory stimuli and bright lights. The criteria for immobility are detailed by Pertwee. The response is calculated as the fraction of time the mouse is immobile over a 5-min test period. Measurements were always done between 2 and 4 p.m. and the animals were used only once.

[8] = test system: Arachidonic Acid-Induced Paw Edema; assay: Arachidonic acid-induced paw edema (water displacement); type: in vivo, CD-1 female mice; conditions: for percent inhibition of paw edema: oral, 30 min after arachidonic acid (1.0 mg s.c.), vs vehicle treated controls
Protocol: The induction of paw edema in rodents by injection of arachidonic acid has been used as an experimental model for inflammation [Calhoun, W., et al., Agents and Actions, 21, 306 (1987)]. Prior administration of non-steroidal anti-inflammatory drugs (NSAIDs) in many cases leads to a dose related inhibition of the edematous response which may be considered a predictor of clinical efficacy.
as §1

[9] = test system: intraocular pressure; assay: Reduction of intraocular pressure (anti-glaucoma activity); type: in vivo, rabbits; conditions: 50 µl drop of a 1% emulsion into the rabbit eye
Protocol: Reduction of intraocular pressure in rabbits was determined by the addition of a 50 µl drop of a 1% emulsion of the cannabinoid into the rabbit eye. This test is a measure of anti-glaucomatic activity.

[10] = dose 0.05 mg/kg oral, cells collected 90 min after administration
[11] = dose 0.05 mg/kg oral, cells collected 90 min after administration, 18-20 hours incubation
[12] = dose 0.10 mg/kg oral, cells collected 90 min after administration
[13] = dose 0.10 mg/kg oral, cells collected 90 min after administration, 18-20 hours incubation
[14] = dose 0.50 mg/kg oral, cells collected 90 min after administration
[15] = dose 0.50 mg/kg oral, cells collected 90 min after administration, 18-20 hours incubation
[16] = dose 1.00 mg/kg oral, cells collected 90 min after administration
[17] = dose 1.00 mg/kg oral, cells collected 90 min after administration, 18-20 hours incubation
[18] = dose 0.25 mg/kg orally 90 min before the hot plate test
[19] = dose 0.50 mg/kg orally 90 min before the hot plate test
[20] = dose 1.0 mg/kg orally 90 min before the hot plate test

CCCCCCC(C)(C)c1cc(O)c2c(c1)OC(C)(C)[C@H]1CC=C(CO)C[C@H]21 [HU-211, reference compound]
adhering cells, percent of control [1, 10]: 124% of control
number of adhering cells x 10^-6 ± S.D. [1, 11]: 1.09±0.08 x 10^-6
adhering cells, percent of control [1, 12]: 50% of control
number of adhering cells x 10^-6 ± S.D. [1, 13]: 0.44±0.03 x 10^-6
adhering cells, percent of control [1, 14]: 73% of control
number of adhering cells x 10^-6 ± S.D. [1, 15]: 0.64±0.06 x 10^-6
adhering cells, percent of control [1, 16]: 67% of control
number of adhering cells x 10^-6 ± S.D. [1, 17]: 0.59±0.06 x 10^-6
percent inhibition of paw edema ([2]; dose 0.5 mg/kg): 37.5%
percent inhibition of paw edema ([2]; dose 1.0 mg/kg): 21.9%
percent change in latency [3, 18]: 30.0(5)* percent
percent change in latency [3, 19]: 72.5(5)*** percent
percent change in latency [3, 20]: -10.2(5) percent
Survival rate (number of survivors out of total number of animals used) [4]: 11/16
protection against forebrain ischemia [5]: protect against forebrain ischemia
Survival rate (number of survivors out of total number of animals used) [6]: 6/10

CCCCCc1cc(O)c2c(c1)OC(C)(C)[C@@H]1CC=C(C(=O)O)C[C@@H]21 [Δ^6-THC-7-oic acid, reference compound]
percent inhibition of paw edema ([2]; dose 40.0 mg/kg): 50.2%

CCCCCc1cc(O)c2c(c1)OC(C)(C)[C@@H]1CCC(C)=C[C@@H]21 [Δ^1-THC, reference compound]
Response ± SD (means of the fraction of time the mice remained immobile) ([7]; dose 40 mg/kg): 48.9 ± 16

THC-7-oic Acid [reference compound]
number of adhering cells x 10^-6 ± S.D. ([1]; dose 20 mg/kg oral, cells collected 90 min after administration, own control 0.81±0.03): 0.67±0.02 x 10^-6
adhering cells, percent of control ([1]; dose 20 mg/kg oral, own control 0.81±0.03): 90.6% of control
number of adhering cells x 10^-6 ± S.D. ([1]; dose 40 mg/kg oral, cells collected 90 min after administration, own control 0.81±0.03): 0.55±0.22 x 10^-6
adhering cells, percent of control ([1]; dose 40 mg/kg oral, own control 0.81±0.03): 67.9% of control

CCCCCCC(C)(C)c1cc(O)c2c(c1)OC(C)(C)[C@H]1CC=C(C(=O)O)C[C@H]21 [HU-235]
reduction of paw edema (result in words) ([8]; arachidonic acid model, summary of Table 1): effective in reducing paw edema
percent inhibition of paw edema ([8]; dose 0.050 mg.kg): 42.1 (N.S.) percent
percent inhibition of paw edema ([8]; dose 0.100 mg.kg): 65.8* percent
percent inhibition of paw edema ([8]; dose 0.250 mg.kg): 52.6* percent
percent inhibition of paw edema ([8]; dose 0.55 mg.kg): 47.4%
adhering cells, percent of control ([1]; dose 0.01 mg/kg oral, cells collected 90 min after administration): 106% of control
number of adhering cells x 10^-6 ± S.D. ([1]; dose 0.01 mg/kg oral, cells collected 90 min after administration, 18-20 hours incubation): 1.34±0.14 x 10^-6
adhering cells, percent of control [1, 10]: 102% of control
number of adhering cells x 10^-6 ± S.D. [1, 11]: 1.29±0.05 x 10^-6
adhering cells, percent of control [1, 12]: 110% of control
number of adhering cells x 10^-6 ± S.D. [1, 13]: 1.38±0.17 x 10^-6
adhering cells, percent of control [1, 14]: 116% of control
number of adhering cells x 10^-6 ± S.D. [1, 15]: 1.46±0.05 x 10^-6
adhering cells, percent of control [1, 16]: 56% of control
number of adhering cells x 10^-6 ± S.D. [1, 17]: 0.70±0.12 x 10^-6
percent inhibition of paw edema ([2]; dose 0.05 mg/kg): 44.4 (N.S.) percent
percent inhibition of paw edema ([2]; dose 0.10 mg/kg): 38.7* percent
percent inhibition of paw edema ([2]; dose 0.25 mg/kg): 31.9* percent
percent inhibition of paw edema ([2]; dose 0.5 mg/kg): 60.1* percent
activity against PAF-induced edema (result in words) ([2]; summary of Table II): active
Response ± SD (means of the fraction of time the mice remained immobile) ([7]; dose 0.25 mg/kg): 12.3 ± 10.3
Response ± SD (means of the fraction of time the mice remained immobile) ([7]; dose 0.5 mg/kg): 13.8 ± 7.9
Response ± SD (means of the fraction of time the mice remained immobile) ([7]; dose 1.0 mg/kg): 10.4 ± 10.6
Response ± SD (means of the fraction of time the mice remained immobile) ([7]; dose 4.0 mg/kg): 8.7 ± 5.6
percent change in latency ([3]; dose 0.025 mg/kg orally 90 min before the hot plate test): 10.3(5) percent
percent change in latency ([3]; dose 0.050 mg/kg orally 90 min before the hot plate test): 61.7(5)* percent
percent change in latency ([3]; dose 0.10 mg/kg orally 90 min before the hot plate test): 49.5(20)* percent
percent change in latency [3, 18]: 61.5(17)** percent
percent change in latency [3, 19]: 51.7(8)* percent
percent change in latency [3, 20]: 14.7(5) percent
Survival rate (number of survivors out of total number of animals used) [4]: 7/10
protection against forebrain ischemia [5]: protect against forebrain ischemia
Reduction of intraocular pressure [9]: Significant reduction
Survival rate (number of survivors out of total number of animals used) [6]: 8/12
